According to US20240110200A1, “Recombinant AAV Vectors and Gene Therapies for Treating Brain Diseases” (City University of Hong Kong, priority 2022, published 2024):

Legend:
[1] = system: KA-induced chronic epileptic mice; experiment: Intrahippocampal kainic acid injection-induced chronic epilepsy (TLE) model, seizure monitoring by MMRS; type: in vivo, C57BL/6J male mice; details: 650 nL KA (0.3 mg/mL) intrahippocampal, no intervention
Experimental: C57BL/6J male mice (6˜7 weeks old) are anaesthetized with pentobarbital (100 mg/kg), a craniotomy is performed perpendicularly to the […] of the hippocampus (−2.06 mm posterior to the bregma, −1.80 mm to the midline, and −1.60 mm to the dura), and 650 nL KA (0.3 mg/mL) is injected at a speed of 30 nL/min.
Upon recovering from the anesthesia, the mice are monitored for at least an hour for any signs of acute epileptic seizures before being placed back into their cages for routine monitoring. For the mice only injected with KA (FIG. S16), they are monitored for 16 weeks after the KA injection.
The mice are housed separately under a standard 12-h light/dark cycle and stable temperature (23-25° C.) with free access to food and water. Each KA-injected mouse is monitored and recorded 24 h per day using a 360-smart camera for a minimum of three weeks after surgery. […]
The seizures of the mice are evaluated in a blinded manner; the examiners of the video are blind to the history of the mice. […]
After the C57bL/6J male mice (9-10 weeks old) show a stable occurrence of spontaneous recurrent seizures, epileptic mice are randomly divided into two groups (experimental and control). The daily seizure occurrence is recorded for 2 weeks as the pre-treatment baseline for each mouse (FIG. 6). […]

[2] = system: GFAP+ cells / Camkll+ cells in cortex and hippocampus; experiment: GFAP and Camkll immunostaining of TLE mouse brain; type: in vivo, C57BL/6J male mice; details: right intrahippocampal KA-injection; n=10 sections from N=4 mice
Experimental: For immunohistochemistry, mice are deeply anaesthetized by an overdose of pentobarbital sodium. Mice are transcardially perfused with 30 mL cold phosphate-buffered saline (PBS) and 30 mL 4% (w/v) paraformaldehyde (4% PFA). Brain tissue is removed, post-fixed with 4% PFA, and treated with 30% (w/v) sucrose in 4% PFA at 4° C. for 2˜3 days. Brain tissue is sectioned on a cryostat (30 μm for standard staining and 10 μm for Super-Resolution imaging) (Leica CM3500, Germany) and preserved with antifreeze buffer (20% (v/v) glycerine and 30% (v/v) ethylene glycol diluted in PBS) at −20° C. For immunostaining and statistics of co-labelled neurons and axonal synapses in the AC, serial sections containing the AC are selected for analysis. […]
Images are took at 20× magnification and montaged together with the same laser settings between the parallel studies. […] For quantification of co-localization, neurons expressing the indicated reporter are counted using only the corresponding color channel. Then, among these cells, the number of neurons co-expressing the marker of interest is counted by the Nikon imaging analysis software (NIS-Elements Viewer 5.21). […] A neuron is positive for a given marker if the corresponding signal is above background fluorescence. The ratio of neurons co-expressing both markers over the total number of cells expressing only the reporter is then calculated. […]

C=C(C)[C@H]1CN[C@H](C(=O)O)[C@H]1CC(=O)O [KA, Kainic Acid]
recurrent convulsive seizures of stages 3 to 5 at week 4 [1]: 5.2±1.52 seizures per day
GFAP+ cells in the right hippocampus after 16 weeks [2]: 748.56±74.88 per mm^2
